From the NIST ThermoML archive (doi:10.1021/je050414d)
“And” between values parts separate entries of the source, which are not always exact repeats. Identical values can stand only once. ± gives the expanded uncertainty stated by the source.

Experiments:
[1] = 101 kPa, Liquid; for viscosity: Capillary tube (Ostwald / Ubbelohde) method
[2] = xn = mol fraction of the nth substance listed; details: 101 kPa, Liquid, x2 = 0; for viscosity: Capillary tube (Ostwald / Ubbelohde) method

Row | SMILES | mass density ([1]; 293.15 K) [kg/m3] | viscosity ([1]; 293.15 K) | mass density ([1]; 298.15 K) [kg/m3] | viscosity ([1]; 298.15 K) [mPa·s] | mass density ([1]; 303.15 K) [kg/m3] | viscosity ([1]; 303.15 K) [mPa·s] | mass density ([1]; 313.15 K) [kg/m3] | viscosity ([1]; 313.15 K) [mPa·s] | mass density ([1]; 323.15 K) [kg/m3] | viscosity ([1]; 323.15 K) [mPa·s] | mass density ([1]; 333.15 K) [kg/m3] | viscosity ([1]; 333.15 K) [mPa·s] | mass density ([1]; 343.15 K) [kg/m3] | viscosity ([1]; 343.15 K) [mPa·s] | viscosity ([2]; 298.15 K) [mPa·s] | mass density ([2]; 298.15 K) [kg/m3] | viscosity ([2]; 303.15 K) [mPa·s] | mass density ([2]; 303.15 K) [kg/m3] | viscosity ([2]; 313.15 K) [mPa·s] | mass density ([2]; 313.15 K) [kg/m3] | further results
1 | CC(C)O [propan-2-ol] | 785.28 ± 2.8 | 2.382 ± 0.016 mPa·s | 780.69 ± 2.8 | 2.069 ± 0.014 | 776.15 ± 2.9 | 1.743 ± 0.013 | 766.34 ± 3 | 1.288 ± 0.01 | 755.66 ± 3 | 1.002 ± 0.009 | 745.51 ± 3.1 | 0.789 ± 0.008 | 735.02 ± 3.2 | 0.626 ± 0.007 |  |  |  |  |  |  | 
2 | CCOC(=O)OCC [diethyl carbonate] | 975 ± 1 | 0.801 ± 0.008 mPa·s and 0.8 ± 0.008 mPa·s | 968.97 ± 1.1 | 0.746 ± 0.008 | 962.39 ± 1.1 | 0.695 ± 0.008 | 952.32 ± 1.2 | 0.61 ± 0.007 | 939.78 ± 1.3 | 0.541 ± 0.007 | 928.69 ± 1.4 | 0.483 ± 0.007 | 916.33 ± 1.6 | 0.435 ± 0.007 |  |  |  |  |  |  | mass density ([1]; 353.15 K): 905.02 ± 1.7 kg/m3; viscosity ([1]; 353.15 K): 0.393 ± 0.007 mPa·s; mass density ([1]; 363.15 K): 893.71 ± 1.8 kg/m3; viscosity ([1]; 363.15 K): 0.358 ± 0.007 mPa·s
3 | CO [methanol] | 791.54 ± 2.7 | 0.582 ± 0.007 mPa·s | 786.83 ± 2.8 | 0.55 ± 0.007 | 782.12 ± 2.8 | 0.512 ± 0.007 | 772.6 ± 2.9 | 0.448 ± 0.007 | 762.97 ± 3 | 0.395 ± 0.007 | 749.69 ± 3.1 | 0.351 ± 0.007 |  |  |  |  |  |  |  |  | 
4 | Cc1ccccc1 [toluene] |  |  | 862.01 ± 2 | 0.554 ± 0.007 | 858.32 ± 2.1 | 0.525 ± 0.007 | 848.92 ± 2.2 | 0.47 ± 0.007 | 838.75 ± 2.3 | 0.423 ± 0.007 | 829.93 ± 2.3 | 0.385 ± 0.007 | 820.3 ± 2.4 | 0.35 ± 0.007 |  |  |  |  |  |  | mass density ([1]; 353.15 K): 810.54 ± 2.5 kg/m3; viscosity ([1]; 353.15 K): 0.31 ± 0.006 mPa·s; mass density ([1]; 363.15 K): 797.68 ± 2.6 kg/m3; viscosity ([1]; 363.15 K): 0.286 ± 0.006 mPa·s
5 | Cc1ccccc1 [toluene] + CCOC(=O)OCC |  |  |  |  |  |  |  |  |  |  |  |  |  |  | 0.554 ± 0.007 | 862.01 ± 2 | 0.525 ± 0.007 | 858.32 ± 2.1 | 0.47 ± 0.007 | 848.92 ± 2.2 | viscosity ([2]; 323.15 K): 0.423 ± 0.007 mPa·s; mass density ([2]; 323.15 K): 838.75 ± 2.3 kg/m3; viscosity ([2]; 333.15 K): 0.385 ± 0.007 mPa·s; mass density ([2]; 333.15 K): 829.93 ± 2.3 kg/m3; viscosity ([2]; 343.15 K): 0.35 ± 0.007 mPa·s; mass density ([2]; 343.15 K): 820.3 ± 2.4 kg/m3; viscosity ([2]; 353.15 K): 0.31 ± 0.006 mPa·s; mass density ([2]; 353.15 K): 810.54 ± 2.5 kg/m3; viscosity ([2]; 363.15 K): 0.286 ± 0.006 mPa·s; mass density ([2]; 363.15 K): 797.68 ± 2.6 kg/m3
6 | CC(C)O [propan-2-ol] + CCOC(=O)OCC |  |  |  |  |  |  |  |  |  |  |  |  |  |  | 2.069 ± 0.014 | 780.69 ± 2.8 | 1.743 ± 0.013 | 776.15 ± 2.9 | 1.288 ± 0.01 | 766.34 ± 3 | viscosity ([2]; 293.15 K): 2.382 ± 0.016 mPa·s; mass density ([2]; 293.15 K): 785.28 ± 2.8 kg/m3; viscosity ([2]; 323.15 K): 1.002 ± 0.009 mPa·s; mass density ([2]; 323.15 K): 755.66 ± 3 kg/m3; viscosity ([2]; 333.15 K): 0.789 ± 0.008 mPa·s; mass density ([2]; 333.15 K): 745.51 ± 3.1 kg/m3; viscosity ([2]; 343.15 K): 0.626 ± 0.007 mPa·s; mass density ([2]; 343.15 K): 735.02 ± 3.2 kg/m3
7 | CO [methanol] + CCOC(=O)OCC |  |  |  |  |  |  |  |  |  |  |  |  |  |  | 0.55 ± 0.007 | 786.83 ± 2.8 | 0.512 ± 0.007 | 782.12 ± 2.8 | 0.448 ± 0.007 | 772.6 ± 2.9 | viscosity ([2]; 293.15 K): 0.582 ± 0.007 mPa·s; mass density ([2]; 293.15 K): 791.54 ± 2.7 kg/m3; viscosity ([2]; 323.15 K): 0.395 ± 0.007 mPa·s; mass density ([2]; 323.15 K): 762.97 ± 3 kg/m3; viscosity ([2]; 333.15 K): 0.351 ± 0.007 mPa·s; mass density ([2]; 333.15 K): 749.69 ± 3.1 kg/m3
